The record followed here is patent publication US8580746B2, “Amide linkage cyclic natriuretic peptide constructs” (Palatin Technologies, Inc., priority 2006, dated 2013).

The target of data set [1] is T1, human natriuratic peptide receptor A (NPRA) (Homo sapiens, UniProt P16066).
T1 sequence (P16066 33-1061): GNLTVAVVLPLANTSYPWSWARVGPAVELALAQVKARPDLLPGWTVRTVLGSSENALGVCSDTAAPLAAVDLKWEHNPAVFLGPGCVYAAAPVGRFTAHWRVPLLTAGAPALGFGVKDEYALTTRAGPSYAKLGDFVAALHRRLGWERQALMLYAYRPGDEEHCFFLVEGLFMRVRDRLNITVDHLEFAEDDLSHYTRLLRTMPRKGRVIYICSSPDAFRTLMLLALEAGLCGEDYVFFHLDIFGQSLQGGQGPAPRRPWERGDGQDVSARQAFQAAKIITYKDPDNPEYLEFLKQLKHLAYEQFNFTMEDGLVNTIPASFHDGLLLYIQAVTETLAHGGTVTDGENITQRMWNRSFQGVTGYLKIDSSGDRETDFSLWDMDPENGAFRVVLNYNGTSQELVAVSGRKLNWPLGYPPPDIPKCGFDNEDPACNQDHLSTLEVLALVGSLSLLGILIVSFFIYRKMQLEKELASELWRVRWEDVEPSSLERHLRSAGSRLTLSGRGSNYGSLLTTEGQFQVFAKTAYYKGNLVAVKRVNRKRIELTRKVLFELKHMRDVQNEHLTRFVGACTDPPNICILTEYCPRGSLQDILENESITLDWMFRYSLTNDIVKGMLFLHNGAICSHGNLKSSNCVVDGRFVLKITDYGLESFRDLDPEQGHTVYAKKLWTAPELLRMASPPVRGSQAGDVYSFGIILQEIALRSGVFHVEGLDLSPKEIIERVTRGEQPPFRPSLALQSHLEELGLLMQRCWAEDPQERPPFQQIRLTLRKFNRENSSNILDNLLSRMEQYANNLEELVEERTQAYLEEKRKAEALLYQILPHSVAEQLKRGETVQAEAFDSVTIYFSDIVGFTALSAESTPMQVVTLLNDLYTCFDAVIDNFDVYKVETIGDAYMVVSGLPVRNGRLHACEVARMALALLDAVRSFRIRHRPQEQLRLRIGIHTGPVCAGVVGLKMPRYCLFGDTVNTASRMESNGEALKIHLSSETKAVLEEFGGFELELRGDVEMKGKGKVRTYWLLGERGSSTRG
Kind of data set: Competitive inhibition binding assay, [125I]-ANP, membrane homogenates from HEK-hNPRA cells. The note with it: [125I]-ANP competition, HEK-hNPRA membranes. The text has this:
(§1) A cDNA clone that encodes for human natriuratic peptide receptor A (NPRA) was purchased from Bio S&T Inc. (Montreal, Quebec). The cDNA clone was inserted into the mammalian expression vector pcDNA3.1 (Invitrogen) and transfected into HEK-293 cells. Stable clones were selected by culture of cells in the presence of G418 sulfate. Expression of NPRA was examined by binding of [^125I]-atrial natriuretic peptide ([^125I]-ANP) to membrane homogenates prepared from clonal cell lines. HEK-hNPRA cells were maintained in culture at 37° C. in 5% CO2 in Dulbecco's Modified Eagle's Medium (DMEM) supplemented with 10% FBS, G418 sulfate (300 μg/mL) sodium glutamate (0.29 mg/mL), penicillin (100 units/mL) and streptomycin (100 ug/mL).
A competitive inhibition binding assay was performed using crude membrane homogenates prepared from HEK-hNPRA cells. To prepare membrane homogenates, cells were rinsed with phosphate-buffered saline and incubated for 15 minutes at 4° C. in hypotonic lysis buffer (10 mM Tris, pH 7.4+5 mM EDTA). Cells were transferred from plates to polypropylene tubes and homogenized. Homogenates were centrifuged at 25,000×g for 20 minutes. Pellets were resuspended in buffer consisting of 50 mM Tris (pH 7.4) and 1 mM EDTA, homogenized and centrifuged at 25,000×g for 20 minutes. Pellets were resuspended in buffer consisting of 100 mM Tris (pH 7.4) and 10 mM MgCl2 and stored at −80° C. until needed. On the day of an assay, homogenates were thawed and homogenized. Binding of [^125I]-ANP was carried out in buffer containing 25 mM Hepes (pH 7.4), 100 mM NaCl, 2 mM CaCl2, 5 mM MgCl2, 0.1% BSA and 1 mM 1,10-phenanthroline. Homogenates (1-10 μg protein/well) were incubated with [^125I]-ANP (25-30 pM) and increasing concentrations of competing ligands in Millipore filter plates for 120 minutes at 4° C. Assays were stopped by addition of cold wash buffer (phosphate-buffered saline) followed by filtration using a vacuum manifold. Bound radioactivity was determined using a gamma counter. Non-specific binding was defined by binding of [I^125]-hANP to non-transfected HEK293 membranes. Data were analyzed using GraphPad Prism® curve-fitting software.

Another data set has as its target T2, hNPR-A (Homo sapiens, UniProt P16066).
T2 sequence (P16066 33-1061): T1 sequence (P16066 33-1061)
Kind of data set: Accumulation of intracellular cGMP in HEK-293 cells that express recombinant hNPR-A. It counts as cell-based. The note with it: HEK-hNPRA cells.
Text: as §1
Functional evaluation of constructs was performed by measuring the accumulation of intracellular cGMP in HEK-293 cells that express recombinant hNPR-A. HEK-NPRA cells were harvested by washing and centrifugation in Cell Dissociation Buffer (Gibco, Life Technologies). Pelleted cells were resuspended in Hank's Balanced Salt Solution (HBSS) containing 10 mM Hepes (pH 7.4), 5 mM MgCl2, […], 1 mM 1,10-phenanthroline and BSA (0.5 mg/mL). Following centrifugation, cells were resuspended in the above buffer supplemented with 0.5 mM 3-isobutyl-1-methylxanthine (IBMX). Cells (˜2×10^5/well) were added to each well of a 96-well plate and incubated for 15 minutes at 37° C. Following the pre-incubation period, cells were incubated for an additional 15 minutes in the presence of increasing concentrations of constructs. The reaction was terminated by lysis of the cells with temperature shock. The reaction plate was incubated in a dry ice/ethanol bath for 15 minutes followed by incubation at 90° C. for 10 minutes. Accumulation of cGMP was measured using the cGMP Flashplate RIA (Perkin-Elmer). Data analysis and EC50 values were determined by using nonlinear regression analysis with GraphPad Prism® software.

The conditions of data set [2]: in vivo. Here is the method:
In other tests, resistance to degradation by a 50 μM concentration of human neutral endopeptidase was determined for selected constructs.

Molecules are shown by their SMILES. Bridge positions count the residues as written; N and C are the ends. Square brackets hold non-standard residues; d marks the D form. Peptide text beside a SMILES is read from it. * marks the point of attachment. X1 = N=C(N)NCCC[C@H]1C(=O)N[C@@H](C(N)=O)CN1*; dNle = CCCC[C@@H](N)C(=O)O; Dab = NCC[C@H](N)C(=O)O

As to `CCCC[C@H]1NC(=O)[C@H](CCCNC(=N)N)NC(=O)CNC(=O)CNC(=O)[C@H](Cc2ccccc2)NC(=O)[C@H](Cc2c[nH]cn2)NC(=O)[C@@H](NC(=O)[C@@H](C)N)CC(=O)NCC[C@@H](C(=O)N[C@@H](Cc2ccc(O)cc2)C(=O)N2C[C@H](C(N)=O)NC(=O)[C@@H]2CCCNC(=N)N)NC(=O)[C@H](CO)NC(=O)[C@H]([C@@H](C)CC)NC(=O)[C@H](CCCNC(=N)N)NC(=O)[C@H](CC(=O)O)NC1=O` [4-98] (H-[dA]DHFGGR[dNle]DRIS[Dab]Y-X1; lactam 2-13), the Ki (in general, a measure of affinity in units of concentration, obtained from inhibition or displacement) in data set [1] was 0.6 nM. The EC50 (commonly the midpoint of the concentration-response curve) on hNPR-A was 0.25 nM. In data set [2], the half-life (as a rule, how long it takes for the measured level to halve) was 6.6 min.
